ChEMBL document CHEMBL1148237, “Bioisosteric replacement of anilide with benzoxazole: potent and orally bioavailable antagonists of VLA-4” (Bioorg Med Chem Lett, 2004)

How the values were obtained:
[1] = Bioavailability in rat; type: ADME, organism-based; conditions: in vivo
[2] = Clearance of compound in rat was evaluated; type: ADME, organism-based; conditions: in vivo
Integrin alpha-4/beta-1 [3] = target: T1, Integrin alpha-4/beta-1 (Homo sapiens, UniProt P05556+P13612); assay: Inhibition of [Ca2+]/Mg2+ unactivated state of very late antigen 4 (VLA-4); type: protein-complex assay
T1 sequence (P05556 whole entry, one chain of several): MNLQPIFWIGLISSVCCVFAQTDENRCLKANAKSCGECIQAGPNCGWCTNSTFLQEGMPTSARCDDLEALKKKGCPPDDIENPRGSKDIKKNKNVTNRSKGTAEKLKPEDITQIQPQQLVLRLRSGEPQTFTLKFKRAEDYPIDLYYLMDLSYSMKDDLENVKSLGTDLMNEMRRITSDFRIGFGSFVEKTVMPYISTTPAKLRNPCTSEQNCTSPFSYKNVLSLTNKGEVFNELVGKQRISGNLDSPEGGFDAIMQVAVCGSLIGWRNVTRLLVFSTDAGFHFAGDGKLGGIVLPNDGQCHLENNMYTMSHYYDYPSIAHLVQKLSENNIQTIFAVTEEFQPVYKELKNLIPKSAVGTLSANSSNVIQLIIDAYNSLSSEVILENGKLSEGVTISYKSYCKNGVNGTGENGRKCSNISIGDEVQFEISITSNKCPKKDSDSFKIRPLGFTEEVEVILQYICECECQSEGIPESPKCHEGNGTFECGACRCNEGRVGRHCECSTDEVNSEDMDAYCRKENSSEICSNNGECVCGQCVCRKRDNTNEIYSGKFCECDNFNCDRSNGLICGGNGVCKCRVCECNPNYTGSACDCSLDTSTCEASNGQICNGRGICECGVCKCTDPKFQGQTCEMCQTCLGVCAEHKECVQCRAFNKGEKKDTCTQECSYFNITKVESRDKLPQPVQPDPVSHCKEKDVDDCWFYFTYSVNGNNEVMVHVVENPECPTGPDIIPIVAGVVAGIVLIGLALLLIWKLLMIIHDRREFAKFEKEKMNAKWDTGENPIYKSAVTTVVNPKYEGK

Integrin alpha-4/beta-7 = target: T2, Integrin alpha-4/beta-7 (Homo sapiens, UniProt P13612+P26010); assay: Inhibition of Mn2+ activated state of alpha4-beta7 integrin; type: protein-complex assay
T2 sequence (P13612 whole entry): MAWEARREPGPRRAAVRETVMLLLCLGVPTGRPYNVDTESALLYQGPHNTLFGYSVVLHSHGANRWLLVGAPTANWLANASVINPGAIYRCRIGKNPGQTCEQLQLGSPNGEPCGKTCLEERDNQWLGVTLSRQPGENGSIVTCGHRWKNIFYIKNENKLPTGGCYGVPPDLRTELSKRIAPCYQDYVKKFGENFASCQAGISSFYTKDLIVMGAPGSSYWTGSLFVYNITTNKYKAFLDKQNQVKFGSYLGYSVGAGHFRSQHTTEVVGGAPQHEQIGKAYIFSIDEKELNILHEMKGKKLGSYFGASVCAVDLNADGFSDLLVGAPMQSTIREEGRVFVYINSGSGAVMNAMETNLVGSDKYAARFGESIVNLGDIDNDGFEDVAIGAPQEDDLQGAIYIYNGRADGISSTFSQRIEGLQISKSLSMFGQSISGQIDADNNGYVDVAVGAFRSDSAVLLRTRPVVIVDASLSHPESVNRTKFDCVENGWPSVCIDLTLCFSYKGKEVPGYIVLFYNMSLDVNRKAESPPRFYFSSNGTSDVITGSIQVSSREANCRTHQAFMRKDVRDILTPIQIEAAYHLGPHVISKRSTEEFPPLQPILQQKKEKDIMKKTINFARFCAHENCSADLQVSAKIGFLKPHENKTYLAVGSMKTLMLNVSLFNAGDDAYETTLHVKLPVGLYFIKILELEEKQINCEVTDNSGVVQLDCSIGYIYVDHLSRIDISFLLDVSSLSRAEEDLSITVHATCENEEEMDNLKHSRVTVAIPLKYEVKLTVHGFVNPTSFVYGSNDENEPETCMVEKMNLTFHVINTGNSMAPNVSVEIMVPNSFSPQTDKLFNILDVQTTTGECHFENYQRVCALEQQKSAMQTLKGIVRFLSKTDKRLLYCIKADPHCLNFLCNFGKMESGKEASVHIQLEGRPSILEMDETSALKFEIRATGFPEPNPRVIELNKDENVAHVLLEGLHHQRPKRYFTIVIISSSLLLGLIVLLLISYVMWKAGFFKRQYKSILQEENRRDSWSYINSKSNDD
T2 sequence (P26010 whole entry): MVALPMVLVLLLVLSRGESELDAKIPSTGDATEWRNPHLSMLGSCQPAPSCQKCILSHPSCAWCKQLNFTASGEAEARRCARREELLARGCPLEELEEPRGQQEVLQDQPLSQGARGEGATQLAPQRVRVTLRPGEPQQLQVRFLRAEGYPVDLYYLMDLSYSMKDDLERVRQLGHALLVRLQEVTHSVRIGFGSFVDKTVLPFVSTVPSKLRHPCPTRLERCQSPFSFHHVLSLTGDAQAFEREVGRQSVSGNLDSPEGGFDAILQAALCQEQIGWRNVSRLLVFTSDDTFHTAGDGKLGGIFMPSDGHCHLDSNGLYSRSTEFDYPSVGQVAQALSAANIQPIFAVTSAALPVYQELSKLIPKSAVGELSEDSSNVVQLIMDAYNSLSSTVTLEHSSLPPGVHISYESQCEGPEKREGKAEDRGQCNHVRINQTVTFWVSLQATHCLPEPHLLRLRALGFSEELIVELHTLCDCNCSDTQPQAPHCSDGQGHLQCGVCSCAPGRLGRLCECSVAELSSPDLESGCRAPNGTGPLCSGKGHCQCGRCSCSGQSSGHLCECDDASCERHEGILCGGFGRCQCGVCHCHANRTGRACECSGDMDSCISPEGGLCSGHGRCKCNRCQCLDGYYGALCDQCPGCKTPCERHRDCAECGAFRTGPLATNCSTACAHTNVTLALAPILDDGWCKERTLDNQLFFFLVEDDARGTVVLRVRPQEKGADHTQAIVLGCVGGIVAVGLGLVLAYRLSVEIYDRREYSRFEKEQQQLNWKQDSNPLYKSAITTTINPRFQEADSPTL

Integrin alpha-4/beta-1 [4] = target: T1, Integrin alpha-4/beta-1; assay: Inhibition of Mn2+ activated state of very late antigen 4 (VLA-4); type: protein-complex assay

Compound	bioavailability [1] [%]	clearance [2] [L/h/kg]	IC50 (Integrin alpha-4/beta-1 [3]) [nM]	IC50 (Integrin alpha-4/beta-7) [nM]	IC50 (Integrin alpha-4/beta-1 [4]) [nM]
O=C(O)[C@H](Cc1ccc2nc(-c3c(Cl)cccc3Cl)oc2c1)NC(=O)[C@@H]1CCN1S(=O)(=O)c1cc(Cl)cc(Cl)c1	8	1.44	33	1690	1.7
O=C(N[C@@H](Cc1ccc2[nH]c(-c3c(Cl)cccc3Cl)nc2c1)C(=O)O)c1c(Cl)cccc1Cl	1.2	1.44	22	3.2	0.69
O=C(N[C@@H](Cc1ccc2oc(-c3c(Cl)cccc3Cl)nc2c1)C(=O)O)c1c(Cl)cccc1Cl	20	0.54	52	5.5	0.79
COc1cccc(OC)c1-c1ccc(C[C@H](NC(=O)[C@]2(C)CCN2S(=O)(=O)c2cc(Cl)cc(Cl)c2)C(=O)O)cc1	–	5.82	0.27	–	–
O=C(Nc1ccc(C[C@H](NC(=O)[C@@H]2CCN2S(=O)(=O)c2cc(Cl)cc(Cl)c2)C(=O)O)cc1)c1c(Cl)cccc1Cl	0.7	1.98	0.31	22	0.27
O=C(O)[C@H](Cc1ccc2[nH]c(-c3c(Cl)cccc3Cl)nc2c1)NC(=O)[C@@H]1CCN1S(=O)(=O)c1cc(Cl)cc(Cl)c1	0.3	1.26	1.8	105	0.54
O=C(N[C@@H](Cc1ccc2oc(-c3c(Cl)cccc3Cl)nc2c1)C(=O)O)c1c(Cl)cncc1Cl	25	1.5	21	4.3	0.34
O=C(O)[C@H](Cc1ccc2oc(-c3c(Cl)cccc3Cl)nc2c1)NC(=O)[C@@H]1CCN1S(=O)(=O)c1cc(Cl)cc(Cl)c1	15	1.44	3.6	179	0.74
